In publication PMC10363032 (Cancer Chemotherapy and Pharmacology, 2023):

Test: plasma pharmacokinetics of probe cocktail substrates and metabolites with and without adavosertib in patients
Conditions: for Vd/F: Mean Vz/F, L (SD); for increase in Cmax on adavosertib co-administration / increase in exposure (AUC0–12) on adavosertib co-administration / increase in exposure (AUC0–t) on adavosertib co-administration: adavosertib 225 mg bid vs cocktail alone; for Point estimates of the geometric LS mean ratios S + AD/S, % (90% CI): AUC / Point estimates of the geometric LS mean ratios S + AD/S, % (90% CI): AUC0–t / Point estimates of the geometric LS mean ratios S + AD/S, % (90% CI): Cmax: substrate + adavosertib 225 mg bid vs substrate alone
Procedure: This sampling period was selected based on the half-lives of the probe substrates.
Plasma concentrations for caffeine, paraxanthine, omeprazole, 5-HO, midazolam, and 1ʹ-HM were all determined by high-performance liquid chromatography–tandem mass spectrometry (HPLC–MS/MS) at Labcorp Bioanalytical Laboratories (Madison, WI, USA).
Plasma concentrations of caffeine and paraxanthine collected with K2EDTA as anticoagulant were determined by HPLC–MS/MS detection simultaneously. The standard curves of caffeine and paraxanthine both ranged from 25.0 to 20,000 ng/mL. […] The lower limit of quantification (LLOQ) was 25.0 ng/mL for caffeine and paraxanthine.
Plasma concentrations of omeprazole and 5-HO were collected with lithium heparin as anticoagulant and were determined by HPLC–MS/MS detection simultaneously. […] The LLOQ was 20.0 nM for omeprazole and 5-HO.
Plasma concentrations of midazolam and 1ʹ-HM were collected with K2EDTA as anticoagulant and were determined by HPLC–MS/MS detection simultaneously. The standard curves of midazolam and 1ʹ-HM both ranged from 0.100 to 100 ng/mL. […] The LLOQ was 0.1 ng/mL for midazolam and 1ʹ-HM.
PK parameters were derived using non-compartmental methods with Phoenix® WinNonlin® version 6.4 (Certara, LP, Princeton, NJ, USA). All descriptive and inferential statistical computations were performed using SAS® version 9.1 (SAS Institute, Cary, NC, USA).

[1] = − AD (cocktail alone, period 1)

Structure (SMILES) | Mean CL/F, L/h (SD) (human, in vivo) | Mean t½ h (SD) (human, in vivo) | Median tmax, h (range) (human, in vivo) | Vd/F (human, in vivo) [L] | Mean MR (metabolic ratio in relation to parent compound), AUC (human, in vivo) | Mean MR (metabolic ratio in relation to parent compound), AUC0–t (human, in vivo) | Mean MR (metabolic ratio in relation to parent compound), Cmax (human, in vivo) | increase in Cmax on adavosertib co-administration [%] | increase in exposure (AUC0–12) on adavosertib co-administration [%] | increase in exposure (AUC0–t) on adavosertib co-administration [%] | Point estimates of the geometric LS mean ratios S + AD/S, % (90% CI): AUC | Point estimates of the geometric LS mean ratios S + AD/S, % (90% CI): AUC0–t | Point estimates of the geometric LS mean ratios S + AD/S, % (90% CI): Cmax | Median tmax, h (range) [1] | half-life (human, in vivo, Mean t½ h (SD)) [h] | further results
Cn1c(=O)c2c(ncn2C)n(C)c1=O [Caffeine, caffeine, reference compound] | 5.7 (2.5) L/h | 6.4 (3.8) h | 0.5 (0.3–3.0) h | 39.3 |  |  |  |  |  |  |  |  |  |  |  | 
COc1ccc2nc([S+]([O-])Cc3ncc(CO)c(OC)c3C)[nH]c2c1 (stereo not shown) [5-HO, 5-hydroxyomeprazole] |  | 2.7 (1.7) h | 3.0 (0.7–6.0) h |  | 0.50 | 0.73 | 0.53 |  |  |  |  |  |  |  |  | 
OCc1ncc2n1-c1ccc(Cl)cc1C(c1ccccc1F)=NC2 [1ʹ-HM, 1ʹ-hydroxymidazolam] |  |  |  |  |  |  |  | 33 | 54 | 58 | 153.5 (131.0–179.8) % | 158.2 (139.1–180.0) % | 133.4 (106.5–167.1) % | 0.5 (0.3–2.1) h |  | Mean MR (metabolic ratio in relation to parent compound), AUC (− AD): 0.41; Mean MR (metabolic ratio in relation to parent compound), AUC0–t (− AD): 0.43; Mean MR (metabolic ratio in relation to parent compound), Cmax (− AD): 0.47; Mean t½ h (SD) [1]: 7.2 (6.1) h
Cn1c(=O)[nH]c2ncn(C)c2c1=O [Paraxanthine, paraxanthine] |  |  | 8.0 (4.0–11.8) h |  | 0.65 | 0.54 | 0.23 |  |  |  |  |  |  |  | 7 | 
Cc1ncc2n1-c1ccc(Cl)cc1C(c1ccccc1F)=NC2 [Midazolam, midazolam, reference compound] |  |  |  |  |  |  |  | 39 | 55 | 55 | 155.3 (138.6–173.9) % | 155.2 (140.5–171.5) % | 138.5 (118.9–161.3) % | 0.5 (0.2–1.0) h |  | half-life (human, in vivo): 5.5 h; Vd/F (human, in vivo, + AD (adavosertib 225 mg bid, period 2)): 364 L; Vd/F (human, in vivo, − AD (cocktail alone, period 1)): 410 L; Mean CL/F, L/h (SD) [1]: 59.0 (34.3) L/h
COc1ccc2[nH]c([S+]([O-])Cc3ncc(C)c(OC)c3C)nc2c1 (stereo not shown) [Omeprazole, omeprazole, reference compound] | 13.3 (10.5) L/h |  | 3.0 (0.7–6.0) h | 28.3 |  |  |  |  |  |  |  |  |  |  | 2 | 
